# Data published in patent US20230175032A1, “EFFICIENT SYNTHESIS OF OMEGA-GLYCOSIDES AND ALKYL GLYCOSIDES” (AMPHISTAR, priority 2020, published 2023).
# Tested on: S. bombicola Δcyp52M1Δfao1 strain
# Test: shake flask cultivation fed with primary alcohols, viability as colony forming units
# Type: cell-based, Starmerella bombicola
# Settings: alcohol added after 48 h of cultivation; in contrast to all other fed substrates (FIG. 8A)
# Protocol: Production experiments using S. bombicola were performed using the production medium described by Lang et al., (2000). For shake flask experiments, 5 mL tube cultures were set up 24 h (30° C.), before transferring to shake flasks (4% inoculation). Production experiments were executed with feeding of fatty alcohols: oleyl alcohol, stearyl alcohol, lauryl alcohol, myristyl alcohol or cetyl alcohol which were added after 48 h of cultivation. The Δcyp52M1Δfao1 strain was also assessed without addition of the hydrophobic alcohol. For every production experiment, cultivation was stopped when glucose was depleted from the medium. […]
# Optical density (OD) of cultures was measured at 600 nm using the Jasco V 630 Bio spectrophotometer (Jasco Europe) of 1 mL samples diluted with physiological solution (9 g/L NaCl). The viability of yeast cells in cultivation experiments was assessed by determining colony forming units (CFUs) which were expressed as the average logarithm of CFUs per culture volume as log(CFU/mL) (Saerens, Saey, et al., 2011). Alternatively, Cell Dry Weight (CDW) was determined by centrifuging 1 mL fermentation samples at 14000 rpm for 5 min in tared Eppendorf tubes, and subsequently washing the cell pellets twice with 1 mL physiological solution. […] The CDW (g/L) was calculated after subtraction of the empty weight of the Eppendorf tube.
smiles,measurement,value
CCCCCCCCCCCCO [lauryl alcohol],CFUs,significant drop
